Measurements reported in ChEMBL document CHEMBL1201862, “PubChem BioAssay data set” (2004).
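Test compounds were applied to cells in 96-well plates for 48 hours at 5 doses. GI50 is the concentration that inhibits growth by half.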 Active and inactive are the calls of the source. Cut-off read from the data, not from the text of the source: active = GI50 up to about 1.1 µM and inactive = higher.

Tests used:
Assay in all cases: DTP human tumour cell line panel, 48 h
EKVX = test system: EKVX
TK-10 = test system: TK-10
NCI-H522 = test system: NCI-H522
LOX IMVI = test system: LOX IMVI
HT-29 = test system: HT-29
SK-MEL-2 = test system: SK-MEL-2
MCF7 = test system: MCF7
MDA-MB-231 = test system: MDA-MB-231
HOP-92 = test system: HOP-92
UACC-62 = test system: UACC-62
CAKI-1 = test system: CAKI-1
KM12 = test system: KM12
OVCAR-3 = test system: OVCAR-3
786-0 = test system: 786-0
OVCAR-4 = test system: OVCAR-4
SW-620 = test system: SW-620
SF-539 = test system: SF-539
NCI-H226 = test system: NCI-H226
A498 = test system: A498
SK-MEL-28 = test system: SK-MEL-28
SNB-75 = test system: SNB-75
MDA-N = test system: MDA-N
SF-295 = test system: SF-295
HL-60 = test system: HL-60
M14 = test system: M14
IGROV-1 = test system: IGROV-1
NCI-H23 = test system: NCI-H23
A549 = test system: A549
ACHN = test system: ACHN
NCI-H460 = test system: NCI-H460
Malme-3M = test system: Malme-3M
SN12C = test system: SN12C
RXF 393 = test system: RXF 393
UACC-257 = test system: UACC-257
COLO 205 = test system: COLO 205
PC-3 = test system: PC-3
Hs-578T = test system: Hs-578T
SR = test system: SR
SF-268 = test system: SF-268
SK-MEL-5 = test system: SK-MEL-5
OVCAR-8 = test system: OVCAR-8
HOP-62 = test system: HOP-62
MOLT-4 = test system: MOLT-4
DU-145 = test system: DU-145
T47D = test system: T47D
HCT-116 = test system: HCT-116
HCT-15 = test system: HCT-15
HCC 2998 = test system: HCC 2998
SNB-19 = test system: SNB-19
NCI/ADR-RES = test system: NCI/ADR-RES
CCRF-CEM = test system: CCRF-CEM
SK-OV-3 = test system: SK-OV-3
OVCAR-5 = test system: OVCAR-5
K562 = test system: K562
MDA-MB-435 = test system: MDA-MB-435
UO-31 = test system: UO-31

CC1=C(C#N)C2C(=C(C)N1)C(N)=Nc1ccccc12 (stereo unspecified)
GI50 (EKVX): 19.1 µM (inactive)
GI50 (TK-10): 46.8 µM (inactive)
GI50 (NCI-H522): 30.8 µM (inactive)
GI50 (LOX IMVI): 36 µM (inactive)
GI50 (HT-29): 38.3 µM (inactive)
GI50 (SK-MEL-2): 81.8 µM (inactive)
GI50 (MCF7): 80.5 µM (inactive)
GI50 (MDA-MB-231): 31.8 µM (inactive)
GI50 (HOP-92): 12.1 µM (inactive)
GI50 (UACC-62): 25.8 µM (inactive)
GI50 (CAKI-1): 49.8 µM (inactive)
GI50 (KM12): 27.6 µM (inactive)
GI50 (OVCAR-3): 28.4 µM (inactive)
GI50 (786-0): 43 µM (inactive)
GI50 (OVCAR-4): 37.4 µM (inactive)
GI50 (SW-620): 48.1 µM (inactive)
GI50 (SF-539): 29.7 µM (inactive)
GI50 (NCI-H226): 30 µM (inactive)
GI50 (A498): 22.3 µM (inactive)
GI50 (SK-MEL-28): 63.4 µM (inactive)
GI50 (SNB-75): 8.17 µM (inactive)
GI50 (MDA-N): 43.2 µM (inactive)
GI50 (SF-295): 30.6 µM (inactive)
GI50 (HL-60): 29.3 µM (inactive)
GI50 (M14): 36.4 µM (inactive)
GI50 (IGROV-1): 29.9 µM (inactive)
GI50 (NCI-H23): 55.2 µM (inactive)
GI50 (A549): 73.1 µM (inactive)
GI50 (ACHN): 47.6 µM (inactive)
GI50 (NCI-H460): 44.4 µM (inactive)
GI50 (Malme-3M): 37.8 µM (inactive)
GI50 (SN12C): 38.5 µM (inactive)
GI50 (RXF 393): 38 µM (inactive)
GI50 (UACC-257): 99.5 µM (inactive)
GI50 (COLO 205): 42.8 µM (inactive)
GI50 (PC-3): 29.6 µM (inactive)
GI50 (Hs-578T): 23 µM (inactive)
GI50 (SR): 41.1 µM (inactive)
GI50 (SF-268): 39.4 µM (inactive)
GI50 (SK-MEL-5): 30 µM (inactive)
GI50 (OVCAR-8): 55.6 µM (inactive)
GI50 (HOP-62): 67.3 µM (inactive)
GI50 (MOLT-4): 33.2 µM (inactive)
GI50 (DU-145): 88.7 µM (inactive)
GI50 (T47D): 31.4 µM (inactive)
GI50 (HCT-116): 32.6 µM (inactive)
GI50 (HCT-15): 85.5 µM
GI50 (HCC 2998): 35.2 µM (inactive)
GI50 (SNB-19): 37.1 µM (inactive)
GI50 (NCI/ADR-RES): > 100 µM (inactive)
GI50 (CCRF-CEM): 32.5 µM (inactive)
GI50 (SK-OV-3): 76.4 µM (inactive)
GI50 (OVCAR-5): 70.5 µM (inactive)

O=c1c2cccnc2oc2c(Cl)cc(-c3nnn[nH]3)cc12
GI50 (EKVX): > 100 µM (inactive)
GI50 (K562): > 100 µM (inactive)
GI50 (TK-10): > 100 µM (inactive)
GI50 (HT-29): > 100 µM (inactive)
GI50 (SK-MEL-2): > 100 µM (inactive)
GI50 (MDA-MB-231): > 100 µM (inactive)
GI50 (HOP-92): 68.7 µM (inactive)
GI50 (UACC-62): > 100 µM (inactive)
GI50 (CAKI-1): > 100 µM (inactive)
GI50 (KM12): > 100 µM (inactive)
GI50 (MDA-MB-435): > 100 µM (inactive)
GI50 (OVCAR-3): > 100 µM (inactive)
GI50 (OVCAR-4): > 100 µM (inactive)
GI50 (SW-620): > 100 µM (inactive)
GI50 (SF-539): > 100 µM (inactive)
GI50 (NCI-H226): > 100 µM (inactive)
GI50 (A498): > 100 µM (inactive)
GI50 (SK-MEL-28): > 100 µM (inactive)
GI50 (SNB-75): > 100 µM (inactive)
GI50 (MDA-N): > 100 µM (inactive)
GI50 (UO-31): 24.7 µM (inactive)
GI50 (HL-60): > 100 µM (inactive)
GI50 (M14): > 100 µM (inactive)
GI50 (IGROV-1): > 100 µM (inactive)
GI50 (NCI-H23): > 100 µM (inactive)
GI50 (A549): > 100 µM (inactive)
GI50 (ACHN): > 100 µM (inactive)
GI50 (Malme-3M): > 100 µM (inactive)
GI50 (SN12C): > 100 µM (inactive)
GI50 (RXF 393): > 100 µM (inactive)
GI50 (COLO 205): > 100 µM (inactive)
GI50 (PC-3): > 100 µM (inactive)
GI50 (Hs-578T): > 100 µM (inactive)
GI50 (SR): > 100 µM (inactive)
GI50 (SF-268): > 100 µM (inactive)
GI50 (SK-MEL-5): > 100 µM (inactive)
GI50 (OVCAR-8): > 100 µM (inactive)
GI50 (HOP-62): > 100 µM (inactive)
GI50 (DU-145): > 100 µM (inactive)
GI50 (T47D): > 100 µM (inactive)
GI50 (HCT-116): > 100 µM (inactive)
GI50 (HCT-15): > 100 µM
GI50 (HCC 2998): > 100 µM (inactive)
GI50 (SNB-19): > 100 µM (inactive)
GI50 (NCI/ADR-RES): > 100 µM (inactive)
GI50 (CCRF-CEM): > 100 µM (inactive)
GI50 (SK-OV-3): > 100 µM (inactive)
GI50 (OVCAR-5): > 100 µM (inactive)
